Article PMC12518996 (Frontiers in Pharmacology, 2025)

Assays:
Format in all cases: in vitro ADME
human liver microsomes = test: Metabolic profiling in human liver microsomes; conditions: trazodone 8 μM, 40 min incubation
Procedure: (§1) The metabolic profile of trazodone was determined using in vitro incubations with rat and human liver microsomes, hepatocytes, and rat plasma samples. […] Microsomal incubations were conducted with pooled human and rat liver microsomes (Celsis IVT) using 0.6 mg/mL microsomal protein in 0.1 M phosphate buffer (pH 7.4). NADPH (1 mM) was added as a cofactor to initiate phase I metabolic reactions. Reactions were performed at 37 °C for 40 min with gentle shaking.
(§2) Processed supernatants (4 µL) were injected onto a Thermo U3000 UHPLC system coupled to a Thermo Q-Exactive Orbitrap MS equipped with a PDA detector. […] The Orbitrap operated in positive ESI mode (sheath/aux/sweep N2 55/8/4 units; capillary 3.0 kV, 370 °C; auxiliary heater 550 °C) with full-scan m/z 100–1,000 at 35,000 FWHM (m/z 200) and DDI-MS/MS at 17,500 FWHM (7 Hz acquisition; IT […]; HCD 40 eV). External mass calibration and a 5 ppm extraction window were applied, and data were processed in Xcalibur 3.0.63/Compound Discoverer 1.0.

CYP1B1 = target: T1, CYP1B1 (Rattus norvegicus, UniProt Q64678); test: Metabolite formation by recombinant rat CYP1B1; conditions: trazodone 4 μM; NADPH; 37 °C, 40 min
T1 sequence (Q64678 1-543): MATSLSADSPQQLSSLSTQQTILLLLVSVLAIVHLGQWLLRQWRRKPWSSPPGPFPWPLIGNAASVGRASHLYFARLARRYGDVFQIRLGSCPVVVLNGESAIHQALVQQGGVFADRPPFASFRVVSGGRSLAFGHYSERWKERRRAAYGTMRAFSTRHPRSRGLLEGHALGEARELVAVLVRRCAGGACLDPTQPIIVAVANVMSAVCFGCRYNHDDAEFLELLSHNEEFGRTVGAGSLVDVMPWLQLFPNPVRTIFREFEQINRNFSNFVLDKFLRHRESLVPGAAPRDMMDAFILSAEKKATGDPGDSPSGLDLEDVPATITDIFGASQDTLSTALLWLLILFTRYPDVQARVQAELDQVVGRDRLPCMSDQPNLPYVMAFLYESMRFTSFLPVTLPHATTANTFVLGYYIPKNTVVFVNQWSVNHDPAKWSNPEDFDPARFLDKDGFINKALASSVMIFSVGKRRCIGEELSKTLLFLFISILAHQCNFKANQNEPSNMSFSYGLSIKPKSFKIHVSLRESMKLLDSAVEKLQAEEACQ
Procedure: To confirm the role of individual CYP isoforms in metabolizing trazodone, recombinant human and rat CYP enzymes were employed in separate incubations. […] Each reaction was terminated with acetonitrile, centrifuged, and the supernatant was analyzed by identical UHPLC-Orbitrap setup outlined in §2.2, allowing direct comparison of metabolite spectra across all in-vitro systems. […] This procedure helped confirm the contributions of individual isoforms to specific biotransformation reactions.

rat liver microsomes = test: Metabolic profiling in rat liver microsomes; conditions: trazodone 8 μM, 40 min incubation
Procedure: as §1, §2

FMO3 = target: T2, FMO3 (Homo sapiens, UniProt P31513); test: Metabolite formation by recombinant human FMO3; conditions: trazodone 4 μM; 37 °C, 40 min
T2 sequence (P31513 1-532): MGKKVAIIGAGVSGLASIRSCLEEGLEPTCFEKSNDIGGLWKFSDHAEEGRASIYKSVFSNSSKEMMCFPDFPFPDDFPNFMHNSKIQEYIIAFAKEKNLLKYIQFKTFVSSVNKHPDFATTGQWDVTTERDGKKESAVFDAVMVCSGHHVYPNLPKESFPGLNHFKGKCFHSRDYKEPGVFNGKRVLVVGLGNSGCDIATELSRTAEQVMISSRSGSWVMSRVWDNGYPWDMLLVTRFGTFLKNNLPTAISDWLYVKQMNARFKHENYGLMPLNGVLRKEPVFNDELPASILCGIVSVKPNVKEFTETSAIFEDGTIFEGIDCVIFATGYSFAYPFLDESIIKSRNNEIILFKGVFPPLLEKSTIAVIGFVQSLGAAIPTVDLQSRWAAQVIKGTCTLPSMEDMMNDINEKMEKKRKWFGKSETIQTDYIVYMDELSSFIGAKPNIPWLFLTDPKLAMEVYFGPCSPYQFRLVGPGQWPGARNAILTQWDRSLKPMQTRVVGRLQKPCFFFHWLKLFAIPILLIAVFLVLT

rat hepatocytes = test: Metabolic profiling in rat hepatocytes; conditions: trazodone 8 μM, 120 min incubation
Procedure: (§3) For hepatocyte incubations, pooled cryopreserved human hepatocytes (20-donor mix, Celsis) and male Sprague-Dawley rat hepatocytes (12-donor mix, Bioreclamation IVT) were used. Each incubation contained 1 million viable cells/mL in Celsis InVitro HI medium, at a pH of 7.4, and was conducted at 37 °C for 120 min under gentle agitation to facilitate metabolic activity.
as §2

human hepatocytes = test: Metabolic profiling in human hepatocytes; conditions: trazodone 8 μM, 120 min incubation
Procedure: as §3, §2

MAOB = target: T3, MAOB (Homo sapiens, UniProt P27338); test: Metabolite formation by recombinant human MAOB; conditions: trazodone 4 μM; 37 °C, 40 min
T3 sequence (P27338 1-520): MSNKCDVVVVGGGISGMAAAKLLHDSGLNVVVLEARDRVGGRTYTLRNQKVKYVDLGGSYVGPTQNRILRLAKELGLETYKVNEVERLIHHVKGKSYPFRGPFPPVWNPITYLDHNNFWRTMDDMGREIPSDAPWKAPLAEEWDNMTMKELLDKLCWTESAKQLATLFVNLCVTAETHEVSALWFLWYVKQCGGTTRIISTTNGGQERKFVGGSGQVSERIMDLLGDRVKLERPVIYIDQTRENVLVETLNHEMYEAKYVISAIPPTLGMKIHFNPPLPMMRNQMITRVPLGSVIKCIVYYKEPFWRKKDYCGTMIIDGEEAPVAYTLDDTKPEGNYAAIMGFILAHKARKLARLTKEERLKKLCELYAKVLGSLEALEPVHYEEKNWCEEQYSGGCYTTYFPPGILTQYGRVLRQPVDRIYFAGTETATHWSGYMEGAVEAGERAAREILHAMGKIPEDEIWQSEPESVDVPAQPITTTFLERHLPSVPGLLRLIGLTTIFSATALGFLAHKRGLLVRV

Row | SMILES | relative abundance (% of total LC-MS signal), Liver microsomes Human (%) (human liver microsomes) | Formation of trazodone phase I metabolite by recombinant rat CYP1B1 (as LC/MS peak areas) (CYP1B1) | relative abundance (% of total LC-MS signal), Liver microsomes Rat (%) (rat liver microsomes) | Formation of trazodone phase I metabolite by recombinant human FMO3 (as LC/MS peak areas) (FMO3) | relative abundance (% of total LC-MS signal), Hepatocytes Rat (%) (rat hepatocytes) | relative abundance (% of total LC-MS signal), Hepatocytes Human (%) (human hepatocytes) | Formation of trazodone phase I metabolite by recombinant human MAOB (as LC/MS peak areas) (MAOB)
1 | O=c1n(CCCN2CCNCC2)nc2ccccn12 [Metabolite M15] | 0.3% | 22 | 0.8% | 0 | 0.7% | 0.2% | 0
2 | O=c1n(CCCO)nc2ccccn12 [Metabolite M20] | 2.9% | 94 | 1.4% | 0 | 0.9% | 0.9% | 0
3 | Clc1cccc(N2CCNCC2)c1 [mCPP, m-chlorophenylpiperazine] |  | 724 |  | 4 |  |  | 20
